# Data as given in ChEMBL document CHEMBL5346978, “Exploration of Tetrahydroisoquinoline- and Benzo[c]azepine-Based Sphingosine 1-Phosphate Receptor 1 Agonists for the Treatment of Multiple Sclerosis” (J Med Chem, 2023).
# pEC50: −log10 of the molar value.
# Tests used:
# [1] = target: T1, Sphingosine 1-phosphate receptor 1 (Homo sapiens, UniProt P21453); assay: Agonist activity at S1P1 (unknown origin) expressed in human HEK293/Galpha15 cells assessed as Ca2+ activation at 1 uM measured for 2 hrs by FLIPR analysis relative to control; format: functional, cell-based
# T1 sequence (P21453 whole entry): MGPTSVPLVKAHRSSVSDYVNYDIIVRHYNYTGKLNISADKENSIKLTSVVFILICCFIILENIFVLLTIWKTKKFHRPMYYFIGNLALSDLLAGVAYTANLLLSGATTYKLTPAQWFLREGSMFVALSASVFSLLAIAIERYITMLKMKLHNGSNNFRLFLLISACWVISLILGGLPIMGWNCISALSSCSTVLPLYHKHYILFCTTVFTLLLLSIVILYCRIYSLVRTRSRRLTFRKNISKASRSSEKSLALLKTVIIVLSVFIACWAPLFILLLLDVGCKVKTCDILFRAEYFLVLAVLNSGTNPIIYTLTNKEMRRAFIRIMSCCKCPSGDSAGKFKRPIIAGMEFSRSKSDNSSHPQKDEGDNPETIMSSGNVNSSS
# [2] = target: T1, Sphingosine 1-phosphate receptor 1; assay: Agonist activity at S1P1 (unknown origin) expressed in PathHunter CHO-K1 EDG1 beta-arrestin cells assessed as beta-arrestin2 recruitment incubated for 90 mins by chemiluminescence based assay; format: functional, cell-based
# [3] = target: T1, Sphingosine 1-phosphate receptor 1; assay: Agonist activity at S1P1 (unknown origin) expressed in PathHunter CHO-K1 EDG1 beta-arrestin cells assessed as beta-arrestin2 recruitment at 1 uM incubated for 90 mins by chemiluminescence based assay relative to control; format: functional, cell-based
# [4] = target: T1, Sphingosine 1-phosphate receptor 1; assay: Agonist activity at S1P1 (unknown origin) expressed in human HEK293/Galpha15 cells assessed as Ca2+ activation measured for 2 hrs by FLIPR analysis; format: functional, cell-based
# [5] = Microsomal stability in human liver microsomes assessed as parent compound remaining preincubated for 5 mins followed by NADPH addition measured after 30 mins by LC-MS/MS analysis; format: ADME, Microsome; settings: time 35 min, read-out: Stability
# [6] = Microsomal stability in mouse liver microsomes assessed as parent compound remaining preincubated for 5 mins followed by NADPH addition measured after 30 mins by LC-MS/MS analysis; format: ADME, Microsome; settings: time 35 min, read-out: Stability
# CYP2D6 = CYP2D6 (Homo sapiens, UniProt P10635); assay: Inhibition of CYP2D6 in human liver microsomes using dextromethorphan as substrate assessed as residual activity at 10 uM preincubated for 5 mins followed by substrate addition and measured after 15 mins in presence of NADPH by LC-MS/MS analysis; format: ADME, Microsome; settings: probe dextromethorphan, time 20 min, read-out: Activity
# Sequence of CYP2D6 (P10635 whole entry): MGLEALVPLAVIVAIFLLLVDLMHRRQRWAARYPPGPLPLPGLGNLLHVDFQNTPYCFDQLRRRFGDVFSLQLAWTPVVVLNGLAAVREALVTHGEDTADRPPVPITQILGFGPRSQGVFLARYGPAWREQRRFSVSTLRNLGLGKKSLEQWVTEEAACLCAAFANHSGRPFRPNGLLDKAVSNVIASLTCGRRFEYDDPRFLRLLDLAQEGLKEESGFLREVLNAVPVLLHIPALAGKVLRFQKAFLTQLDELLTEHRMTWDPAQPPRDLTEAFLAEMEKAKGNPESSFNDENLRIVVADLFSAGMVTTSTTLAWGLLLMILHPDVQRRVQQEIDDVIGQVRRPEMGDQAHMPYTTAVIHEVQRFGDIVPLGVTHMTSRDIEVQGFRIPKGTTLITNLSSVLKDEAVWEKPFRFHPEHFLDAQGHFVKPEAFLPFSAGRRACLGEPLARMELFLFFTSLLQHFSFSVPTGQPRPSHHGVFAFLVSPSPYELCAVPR
# CYP3A4 = CYP3A4 (Homo sapiens, UniProt P08684); assay: Inhibition of CYP3A4 in human liver microsomes using midazolam as substrate assessed as residual activity at 10 uM preincubated for 5 mins followed by substrate addition and measured after 15 mins in presence of NADPH by LC-MS/MS analysis; format: ADME, Microsome; settings: probe midazolam, time 20 min, read-out: Activity
# Sequence of CYP3A4 (P08684 whole entry): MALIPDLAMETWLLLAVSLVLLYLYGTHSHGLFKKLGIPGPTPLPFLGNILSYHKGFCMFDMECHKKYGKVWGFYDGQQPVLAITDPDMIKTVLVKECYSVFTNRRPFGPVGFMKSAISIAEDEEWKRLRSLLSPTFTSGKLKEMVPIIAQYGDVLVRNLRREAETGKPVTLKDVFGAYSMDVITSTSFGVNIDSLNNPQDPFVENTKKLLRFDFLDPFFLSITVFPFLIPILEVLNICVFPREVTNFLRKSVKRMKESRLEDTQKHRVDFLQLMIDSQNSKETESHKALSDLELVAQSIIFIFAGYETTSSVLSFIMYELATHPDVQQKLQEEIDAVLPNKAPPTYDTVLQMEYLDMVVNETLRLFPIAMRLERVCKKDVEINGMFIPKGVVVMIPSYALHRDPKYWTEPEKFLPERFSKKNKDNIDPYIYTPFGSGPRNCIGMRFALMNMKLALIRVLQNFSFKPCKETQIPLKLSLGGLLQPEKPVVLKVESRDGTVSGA
# CYP2C9 = CYP2C9 (Homo sapiens, UniProt P11712); assay: Inhibition of CYP2C9 in human liver microsomes using diclofenac as substrate assessed as residual activity at 10 uM preincubated for 5 mins followed by substrate addition and measured after 15 mins in presence of NADPH by LC-MS/MS analysis; format: ADME, Microsome; settings: probe diclofenac, time 20 min, read-out: Activity
# Sequence of CYP2C9 (P11712 whole entry): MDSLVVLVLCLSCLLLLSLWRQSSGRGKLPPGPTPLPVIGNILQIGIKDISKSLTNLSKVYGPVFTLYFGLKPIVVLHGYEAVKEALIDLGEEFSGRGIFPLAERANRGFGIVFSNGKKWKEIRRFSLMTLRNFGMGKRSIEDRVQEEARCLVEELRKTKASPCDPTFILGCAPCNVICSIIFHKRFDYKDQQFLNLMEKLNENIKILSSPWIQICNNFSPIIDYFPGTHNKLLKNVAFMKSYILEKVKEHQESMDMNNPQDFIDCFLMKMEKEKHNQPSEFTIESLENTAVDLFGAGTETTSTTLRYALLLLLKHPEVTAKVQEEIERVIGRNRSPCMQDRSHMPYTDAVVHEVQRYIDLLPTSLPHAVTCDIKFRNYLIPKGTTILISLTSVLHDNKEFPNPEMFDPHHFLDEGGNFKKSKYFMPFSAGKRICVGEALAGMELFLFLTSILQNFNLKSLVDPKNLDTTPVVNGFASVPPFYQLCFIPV
# CYP1A2 = target: T2, CYP1A2 (Homo sapiens, UniProt P05177); assay: Inhibition of CYP1A2 in human liver microsomes using phenacetin as substrate assessed as residual activity at 10 uM preincubated for 5 mins followed by substrate addition and measured after 15 mins in presence of NADPH by LC-MS/MS analysis; format: ADME, Microsome; settings: probe phenacetin, time 20 min, read-out: Activity
# T2 sequence (P05177 whole entry): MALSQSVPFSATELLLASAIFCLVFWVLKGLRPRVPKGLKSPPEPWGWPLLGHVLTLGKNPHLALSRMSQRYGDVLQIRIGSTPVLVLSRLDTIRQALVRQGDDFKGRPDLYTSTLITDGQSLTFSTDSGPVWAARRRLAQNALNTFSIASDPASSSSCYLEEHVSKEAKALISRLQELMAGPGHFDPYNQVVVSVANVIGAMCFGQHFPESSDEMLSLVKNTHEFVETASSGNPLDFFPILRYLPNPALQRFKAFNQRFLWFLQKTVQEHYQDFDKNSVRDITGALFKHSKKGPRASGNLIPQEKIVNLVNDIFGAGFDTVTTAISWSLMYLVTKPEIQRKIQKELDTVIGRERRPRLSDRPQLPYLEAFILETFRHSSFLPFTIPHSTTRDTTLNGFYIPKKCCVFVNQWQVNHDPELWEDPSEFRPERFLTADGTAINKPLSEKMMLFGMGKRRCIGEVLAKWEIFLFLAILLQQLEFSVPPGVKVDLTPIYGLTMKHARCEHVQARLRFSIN
# [7] = Microsomal stability in mouse liver microsomes assessed as parent compound remaining preincubated for 5 mins followed by NADPH addition measured after 60 mins by LC-MS/MS analysis; format: ADME, Microsome; settings: time 65 min, read-out: Stability
# [8] = Microsomal stability in rat liver microsomes assessed as parent compound remaining preincubated for 5 mins followed by NADPH addition measured after 60 mins by LC-MS/MS analysis; format: ADME, Microsome; settings: time 65 min, read-out: Stability
SMILES,Activity [1] [%],pEC50 [2],Activity ([3]; filed as agonist) [%],Activity [3] [%],also measured
COC(=O)CCS(=O)(=O)N1CCc2cc(OCc3ccc(OC(C)C)c(C#N)c3)ccc2C1,9,7.22,103,,
CC(C)Oc1ccc(COc2ccc3c(c2)CCCN3S(=O)(=O)CCCO)cc1C#N,3,,,35,
CC(C)Oc1ccc(COc2ccc3c(c2)CCN(S(=O)(=O)CC(=O)O)C3)cc1C#N,,6.79,92,,Activity ([1]; filed as agonist): 85%; pEC50 [4]: 7.05
CC(C)Oc1ccc(COc2ccc3c(c2)CCCN(CCC(=O)O)C3)cc1C#N,3,,,2,
CC(=O)NCCC(=O)N1CCc2cc(OCc3ccc(OC(C)C)c(C#N)c3)ccc2C1,,6.56,117,,Activity ([1]; filed as agonist): 41%; remaining at 0.5 h [5]: 29.7%; pEC50 [4]: 5.77; remaining at 0.5 h [6]: 14.9%
COC(=O)CN1CCc2cc(OCc3ccc(OC(C)C)c(C#N)c3)ccc2C1,13,,,32,
CC(C)Oc1ccc(COc2ccc3c(n2)CCN(S(=O)(=O)CCCO)C3)cc1C#N,10,6.46,118,,
CC(C)Oc1ccc(COc2cccc3c2CCN(S(=O)(=O)CCCO)C3)cc1C#N,3,,,1,
CC(C)Oc1ccc(COc2ccc3c(c2)CCN(C(=O)CC(=O)O)C3)cc1C#N,,,42,,Activity ([1]; filed as agonist): 64%; pEC50 [4]: 6.10
CC(C)Oc1ccc(COc2ccc3c(c2)CCN(CCO)C3)cc1C#N,7,,,32,
CC(C)Oc1ccc(COc2ccc3c(c2)CCN(CCCC(=O)O)C3)cc1C#N,,7.01,91,,Activity ([1]; filed as agonist): 79%; pEC50 [4]: 7.01
CC(C)Oc1ccc(COc2ccc3c(c2)CCN(CCCO)C3)cc1C#N,5,,,30,
CNC(=O)CCC(=O)N1CCc2cc(OCc3ccc(OC(C)C)c(C#N)c3)ccc2C1,39,5.83,82,,
CC(C)Oc1ccc(COc2ccc3c(c2)CN(CCC(=O)O)CCC3)cc1C#N,13,,,6,
CC(C)Oc1ccc(COc2ccc3c(c2)CCN(CCC(=O)O)C3)cc1C#N,,6.71,98,,"activity at 0.25 h, 10 µM (CYP2D6): 95.4%; activity at 0.25 h, 10 µM (CYP3A4): 90.2%; Activity ([1]; filed as agonist): 82%; activity at 0.25 h, 10 µM (CYP2C9): 92.2%; remaining at 0.5 h [5]: 99%; pEC50 [4]: 6.61; activity at 0.25 h, 10 µM (CYP1A2): 85.1%; remaining at 0.5 h [6]: 98.7%"
CC(C)Oc1ccc(COc2ccc3c(c2)CCN(S(=O)(=O)CCCO)C3C)cc1C#N (configuration not stated),12,,45,,
CC(C)Oc1ccc(COc2ccc3c(c2)CCN(C(=O)CCC(N)=O)C3)cc1C#N,,6.96,91,,Activity ([1]; filed as agonist): 47%; pEC50 [4]: 5.65
CC(C)Oc1ccc(COc2ccc3c(c2)CCN(CC(=O)O)C3)cc1C#N,,6.16,67,,Activity ([1]; filed as agonist): 56%; pEC50 [4]: 8.98
CC(C)Oc1ccc(C(=O)Nc2ccc3c(c2)CCN(S(=O)(=O)CCC(=O)O)C3)cc1C#N,18,,,15,
CC(C)Oc1ccc(COc2ccc3c(c2)CN(S(=O)(=O)CCCO)CC3)cc1C#N,3,,,7,
CC(C)Oc1ccc(COc2ccc3c(c2)CCN(C(=O)CCCNS(C)(=O)=O)C3)cc1C#N,6,6.13,68,,
CC(C)Oc1ccc(CN(C)c2ccc3c(c2)CCN(S(=O)(=O)CCC(=O)O)C3)cc1C#N,8,,,9,
COC(=O)CCS(=O)(=O)N1CCc2cc(N(C)Cc3ccc(OC(C)C)c(C#N)c3)ccc2C1,12,,,5,
CC(C)Oc1ccc(COc2ccc3c(c2)CN(S(=O)(=O)CCC(=O)O)CC3)cc1C#N,3,,,4,

SMILES,Activity [1] [%],pEC50 [2],Activity ([3]; filed as agonist) [%],Activity [3] [%],also measured
CC(C)Oc1ccc(COc2ccc3c(c2)CCN(S(=O)(=O)CCCO)C3)cc1C#N,6,6.30,72,,
COC(=O)CCN1CCc2cc(OCc3ccc(OC(C)C)c(C#N)c3)ccc2C1,,6.48,91,,Activity ([1]; filed as agonist): 40%
CC(C)Oc1ccc(COc2ccc3c(c2)CN(S(=O)(=O)CCC(=O)O)CCC3)cc1C#N,8,,,0,
CC(=O)NCCCC(=O)N1CCc2cc(OCc3ccc(OC(C)C)c(C#N)c3)ccc2C1,,6.37,105,,Activity ([1]; filed as agonist): 55%; pEC50 [4]: 5.90
CC(C)Oc1ccc(COc2cccc3c2CCN(CCC(=O)O)C3)cc1C#N,6,,,2,
CC(C)Oc1ccc(COc2cccc3c2CCN(S(=O)(=O)CCC(=O)O)C3)cc1C#N,4,,,1,
CC(C)Oc1ccc(COc2ccc3c(c2)OCCN(S(=O)(=O)CCO)C3)cc1C#N,,7.65,96,,Activity ([1]; filed as agonist): 65%; pEC50 [4]: 6.17
COC(=O)CCS(=O)(=O)N1CCc2cc(NCc3ccc(OC(C)C)c(C#N)c3)ccc2C1,13,,,26,
CC(C)Oc1ccc(COc2ccc3c(c2)OCCN(CCC(=O)O)C3)cc1C#N,14,,,24,
COC(=O)CS(=O)(=O)N1CCc2cc(OCc3ccc(OC(C)C)c(C#N)c3)ccc2C1,6,6.55,89,,
CC(C)Oc1ccc(COc2ccc3c(c2)CCN(C(=O)CCO)C3)cc1C#N,36,6.73,88,,
CC(C)Oc1ccc(COc2ccc3c(c2)CCN(C(C)C(=O)O)C3)cc1C#N (configuration not stated),10,,,18,
CC(C)Oc1ccc(COc2ccc3c(c2)CCN(S(=O)(=O)CC(=O)O)C3C)cc1C#N (configuration not stated),21,,,17,
COC(=O)CCCN1CCc2cc(OCc3ccc(OC(C)C)c(C#N)c3)ccc2C1,7,6.81,91,,
CC(C)Oc1ccc(COc2ccc3c(c2)CCN(S(=O)(=O)CCC(=O)O)CC3)cc1C#N,9,,,25,
COC(=O)CCS(=O)(=O)N1CCc2cc(NC(=O)c3ccc(OC(C)C)c(C#N)c3)ccc2C1,7,,,7,
CC(C)Oc1ccc(COc2ccc3c(c2)CCN(S(=O)(=O)CCO)C3)cc1C#N,,6.72,88,,Activity ([1]; filed as agonist): 44%
CC(C)Oc1ccc(COc2ccc3c(c2)CCN(CCC(=O)O)C3C)cc1C#N (configuration not stated),,6.98,74,,Activity ([1]; filed as agonist): 69%; pEC50 [4]: 6.28
COC(=O)CCS(=O)(=O)N1CCc2cc(Nc3ccc(OC(C)C)c(C#N)c3)ccc2C1,5,,,3,
CC(C)Oc1ccc(COc2ccc3c(n2)CCN(C(=O)CCC(=O)O)C3)cc1C#N,14,,,26,
CC(C)Oc1ccc(COc2ccc3c(c2)CN(CCC(=O)O)CC3)cc1C#N,1,,,2,
CC(C)Oc1ccc(COc2ccc3c(c2)OCCN(S(=O)(=O)CCC(=O)O)C3)cc1C#N,,7.54,109,,"activity at 0.25 h, 10 µM (CYP2D6): 73.6%; activity at 0.25 h, 10 µM (CYP3A4): 68.8%; Activity ([1]; filed as agonist): 83%; remaining at 1 h [7]: 90.5%; remaining at 1 h [8]: 92.9%; activity at 0.25 h, 10 µM (CYP2C9): 70.7%; pEC50 [4]: 7.17; activity at 0.25 h, 10 µM (CYP1A2): 71.2%"
CC(C)Oc1ccc(COc2ccc3c(c2)CCN(CCCCO)C3)cc1C#N,3,,,24,
CC(C)Oc1ccc(COc2ccc3c(c2)CCN(C(=O)CCC(=O)O)C3C)cc1C#N (configuration not stated),,,40,,Activity ([1]; filed as agonist): 57%; pEC50 [4]: 6.02
